In patent US12447156B2, “Treating progressive familial intrahepatic cholestasis (PFIC) with IBAT inhibitors” (ALBIREO AB, priority 2020, dated 2025):
Values joined by “and” are separate entries in the source; they are usually repeats but may differ in a detail not shown here. Equal values may be shown once.

Tested on: children with PFIC1 or PFIC2
Assay: PEDFIC 1 phase 3 randomized, double-blind, placebo-controlled trial: efficacy (pruritus, serum bile acids, hepatic parameters, growth, sleep)
Format: in vivo, human
Conditions: for Proportion of Positive Pruritus Assessments Over the Treatment Period, Mean (SE) / Proportion of Positive Pruritus Assessments, Mean Difference vs Placebo (least squares means): 24 weeks; for least squares mean treatment difference vs placebo in proportion of positive pruritus assessments / least square mean proportion of positive pruritus assessments at the patient level: over 24 weeks; for least square mean proportion of positive pruritus assessments at the patient level: ObsRO
Method: Odevixibat is an orally administered, potent, luminally restricted, selective IBAT inhibitor in development to treat cholestatic liver diseases. In this phase 3, randomized, 24-week trial (PEDFIC 1), the efficacy and safety of odevixibat versus placebo was evaluated in children with PFIC1 or PFIC2. The efficacy of odevixibat in patients with PFIC was evaluated a 24-week, randomized, double-blind, placebo-controlled trial conducted in 62 patients with a confirmed diagnosis of PFIC Type 1 or Type 2 (NCT03566238; European Union (EU), 2017-002338-21; PEDFIC1; FIG. 1). Patients were randomized 1:1:1 to placebo, or 40 or 120 μg/kg odevixibat and stratified by PFIC Type (1 or 2) and age (6 months to 5 years, 6 to 12 years, and 13 to ≤18 years). Patients with pathologic variations of the ABCB11 gene that predict complete absence of the bile salt export pump (BSEP) protein and those with alanine aminotransferase (ALT)>10×ULN or bilirubin>5×ULN were excluded from the study.
The study consisted of a screening phase and parallel-design treatment period (FIG. 1). Two screening visits occurred: the first took place during days −56 to −35 prior to the first dose of study drug and the second occurred during days −28 to −7. On day 0, all eligible patients were randomized 1:1:1 to oral, once-daily placebo, 40 μg/kg/day odevixibat, or 120 μg/kg/day odevixibat. After written informed consent was obtained, an 8-digit patient identification number was assigned by the Interactive Web Response System (IWRS). The first two digits denoted country, followed by a 3-digit site number, and a 3-digit patient sequence number. The randomization codes were computer generated by a biostatistician at ICON Clinical Research Ltd (Dublin, Ireland) and kept by an unblinded statistician at Firma Clinical Research (Chicago, IL, USA), independent from the project team. Patients deemed eligible for randomization were assigned a unique 4 digit randomization number by the IWRS that identified which treatment was allocated to the patient. Randomization was done in a block size of six and stratified according to PFIC type 1 or 2 and age group (6 months to 5 years, 6 to 12 years, and 13 to ≤18 years) to ensure approximate balance between dose schemes (1:1:1). A separate randomization list was prepared for the patients who had taken part in study A4250-003, regardless of stratification. Randomization codes were assigned sequentially as patients became eligible for randomization. The IWRS system assigned a study drug number(s) corresponding to the randomization arm at each dispensing visit. A 5-digit study drug number identified study drug packs and was detailed on the study drug label.
Treatment was dispensed during on-site clinic visits, and patients or caregivers were instructed to take or administer the study drug at home each morning, either as an intact capsule(s) (swallowed with a glass of water and with food) or sprinkled on soft, room-temperature food (e.g., applesauce, followed by water). The double-blind PEDFIC 1 treatment period lasted 24 weeks.
Children (aged 0.5 to 18 years) with genetic confirmation of biallelic pathogenic mutations in the ATP8B1 (i.e., PFIC1) or ABCB11 genes (i.e., PFIC2), elevated serum bile acids (≥100 μmol/L), history of significant pruritus, and an average caregiver-reported observed scratching score ≥2 (calculated from daily electronic diary [eDiary] entries) in the 14 days prior to randomization, were eligible for inclusion. Additionally, caregivers or age-appropriate patients (≥8 years of age) agreed to use the eDiary device to record symptoms. Patients with two mutations in ABCB11 predicting a complete absence of functional bile salt export pump protein were excluded.
Two different primary endpoints were evaluated. The first primary endpoint in this study was the proportion of positive pruritus assessments at the patient level over the 24-week treatment period based on an observer-reported outcome (ObsRO) instrument. […]

CCCCC1(CCCC)CN(c2ccccc2)c2cc(SC)c(OCC(=O)N[C@@H](C(=O)N[C@@H](CC)C(=O)O)c3ccc(O)cc3)cc2S(=O)(=O)N1 [Odevixibat, 1,1-dioxo-3,3-dibutyl-5-phenyl-7-methylthio-8-(N-{(R)-α-[N-((S)-1-carboxypropyl)carbamoyl]-4-hydroxybenzyl}carbamoylmethoxy)-2,3,4,5-tetrahydro-1,2,5-benzothiadiazepine]
Patients with Reduction in Serum Bile Acids, % Difference vs Placebo (PEDFIC 1, 40 μg/kg/day): 44.1% | mean percentage difference vs placebo in patients who met the serum bile acid reduction endpoint (PEDFIC 1, 40 μg/kg/day): 44.1% | Proportion of Positive Pruritus Assessments Over the Treatment Period, Mean (SE) (PEDFIC 1, 40 μg/kg/day (n = 23)): 58.31 (6.205) | Proportion of Positive Pruritus Assessments, Mean Difference vs Placebo (least squares means) (PEDFIC 1, 40 μg/kg/day): 28.23 (9.182) | Autotaxin, change from baseline to week 24, mean (PEDFIC 1, 40 μg/kg/day, n 14): -1698 ng/mL | APRI, change from baseline to week 24, mean (PEDFIC 1, 40 μg/kg/day, n 15): −0.1 | C4 (7alpha-hydroxy-4-cholesten-3-one), change from baseline to week 24, mean (PEDFIC 1, 40 μg/kg/day, n 15): 15.7 ng/mL | FIB-4, change from baseline to week 24, mean (PEDFIC 1, 40 μg/kg/day, n 15): 0.0 | PELD/MELD, change from baseline to week 24, mean (PEDFIC 1, 40 μg/kg/day, n 15): −2.4 | GGT, change from baseline to week 24, mean (SE) (PEDFIC 1, 40 μg/kg/day, n 17): −3 (2) U/L | Serum AST, change from baseline to week 24, mean (PEDFIC 1, 40 μg/kg/day, n 17): −37 U/L | Total bilirubin, change from baseline to week 24, mean (PEDFIC 1, 40 μg/kg/day, n 17): -1.4 mg/dL | Proportion of Patients with Reduction in Serum Bile Acids at End of Treatment (PEDFIC 1, 40 μg/kg/day, n = 23): 10 (43.5) n (%) | least squares mean treatment difference vs placebo in proportion of positive pruritus assessments (PEDFIC 1, 40 μg/kg/day): 28.2% | least square mean proportion of positive pruritus assessments at the patient level (PEDFIC 1, 40 μg/kg/day): 58% | proportion of patients achieving a serum bile acid response (≥70% reduction or ≤70 μmol/L) (PEDFIC 1, 40 μg/kg/day, week 24): 44% | mean (SE) change from baseline to end of treatment in height z-score (PEDFIC 1, 40 μg/kg/day, placebo 0.10 (0.102)): 0.29 (0.106) | mean (SE) change from baseline to end of treatment in ALT (PEDFIC 1, 40 μg/kg/day, placebo 3.7 (4.95)): −27.9 (17.97) U/L | mean change from baseline to end of treatment in percentage of days sleeping with the caregiver (PEDFIC 1, 40 μg/kg/day, placebo −5.5%): −49.4% | mean change from baseline to end of treatment in percentage of days requiring soothing (PEDFIC 1, 40 μg/kg/day, placebo −7.6%): −51.5% | Patients with Reduction in Serum Bile Acids, % Difference vs Placebo (PEDFIC 1, 120 μg/kg/day): 21.6% | mean (SE) change from baseline to end of treatment in ALT (PEDFIC 1, 120 μg/kg/day): −25.3 (22.47) U/L | mean (SE) change from baseline to end of treatment in height z-score (PEDFIC 1, 120 μg/kg/day): 0.15 (0.124) | mean change from baseline to end of treatment in percentage of days requiring soothing (PEDFIC 1, 120 μg/kg/day): −34.9% | mean change from baseline to end of treatment in percentage of days sleeping with the caregiver (PEDFIC 1, 120 μg/kg/day): −33.1% | mean percentage difference vs placebo in patients who met the serum bile acid reduction endpoint (PEDFIC 1, 120 μg/kg/day): 21.6% | Proportion of Positive Pruritus Assessments Over the Treatment Period, Mean (SE) (PEDFIC 1, 120 μg/kg/day (n = 19)): 47.69 (8.110) | Proportion of Positive Pruritus Assessments, Mean Difference vs Placebo (least squares means) (PEDFIC 1, 120 μg/kg/day): 21.71 (9.892) | APRI, change from baseline to week 24, mean (PEDFIC 1, 120 μg/kg/day, n 8): 0.0 | FIB-4, change from baseline to week 24, mean (PEDFIC 1, 120 μg/kg/day, n 8): 0.1 | Autotaxin, change from baseline to week 24, mean (PEDFIC 1, 120 μg/kg/day, n 12): -1018 ng/mL | C4 (7alpha-hydroxy-4-cholesten-3-one), change from baseline to week 24, mean (PEDFIC 1, 120 μg/kg/day, n 12): 15.8 ng/mL | PELD/MELD, change from baseline to week 24, mean (PEDFIC 1, 120 μg/kg/day, n 14): −1.1 | GGT, change from baseline to week 24, mean (SE) (PEDFIC 1, 120 μg/kg/day, n 15): −1 (1) U/L | Serum AST, change from baseline to week 24, mean (PEDFIC 1, 120 μg/kg/day, n 15): −27 U/L | Total bilirubin, change from baseline to week 24, mean (PEDFIC 1, 120 μg/kg/day, n 15): -1.1 mg/dL | Proportion of Patients with Reduction in Serum Bile Acids at End of Treatment (PEDFIC 1, 120 μg/kg/day, n = 19): 4 (21.1) n (%) | least squares mean treatment difference vs placebo in proportion of positive pruritus assessments (PEDFIC 1, 120 μg/kg/day): 21.7% | least square mean proportion of positive pruritus assessments at the patient level (PEDFIC 1, 120 μg/kg/day): 52% | proportion of patients achieving a serum bile acid response (≥70% reduction or ≤70 μmol/L) (PEDFIC 1, 120 μg/kg/day, week 24): 21% | percentage of days seeing blood due to scratching, number of awakenings, percentage of days taking medications to induce sleep: odevixibat vs placebo (PEDFIC 1, 24 weeks): no clear differences | reduction of autotaxin levels (PEDFIC 1, 24 weeks of treatment): approximately half | Patients with Reduction in Serum Bile Acids, % Difference vs Placebo (PEDFIC 1, Total odevixibat): 30.7% | Proportion of Positive Pruritus Assessments Over the Treatment Period, Mean (SE) (PEDFIC 1, Total odevixibat (N = 42), placebo 28.74 (5.209)): 53.51 (5.006) | Proportion of Patients with Reduction in Serum Bile Acids at End of Treatment (PEDFIC 1, Total odevixibat (N = 42), placebo 0): 14 (33.3) n (%) | Proportion of Positive Pruritus Assessments, Mean Difference vs Placebo (least squares means) (PEDFIC 1, Total odevixibat): 24.97 (8.240) | patients undergoing surgical interruption of the enterohepatic circulation or liver transplantation (PEDFIC 1, all 62 patients, during the study): None | mean (SE) change from baseline in ObsRO pruritus score (mean monthly) (PEDFIC 1, all doses, baseline to weeks 21 through 24, placebo −0.25 (0.2)): −1.11 (0.2) | APRI, change from baseline to week 24, mean (PEDFIC 1, all doses, n 23): −0.1 | FIB-4, change from baseline to week 24, mean (PEDFIC 1, all doses, n 23): 0.0 | Autotaxin, change from baseline to week 24, mean (PEDFIC 1, all doses, n 26): -1384 ng/mL | C4 (7alpha-hydroxy-4-cholesten-3-one), change from baseline to week 24, mean (PEDFIC 1, all doses, n 27): 15.7 ng/mL | PELD/MELD, change from baseline to week 24, mean (PEDFIC 1, all doses, n 29): −1.8 | GGT, change from baseline to week 24, mean (SE) (PEDFIC 1, all doses, n 32): −2 (1) U/L | Serum AST, change from baseline to week 24, mean (PEDFIC 1, all doses, n 32): −32 U/L | Total bilirubin, change from baseline to week 24, mean (PEDFIC 1, all doses, n 32): -1.3 mg/dL | least square mean proportion of positive pruritus assessments at the patient level (PEDFIC 1, all doses, placebo 30%): 55% and 55.1% | proportion of patients achieving a serum bile acid response (≥70% reduction or ≤70 μmol/L) (PEDFIC 1, all doses, week 24, placebo 0): 33% and 33.3% | mean (SE) change in serum ALT (PEDFIC 1, all doses, week 24, placebo 3.7 (5.0)): −26.7 (14.0) U/L | proportion of patients with clinically meaningful change in pruritus (≥1-point decrease, mean monthly score) (PEDFIC 1, all doses, week 24, placebo 11%): 43% | mean change in serum bile acid levels (PEDFIC 1, all doses, weeks 22 through 24 / end of treatment, placebo +13.1): -114.3 µmol/L | mean pruritus score change from baseline to end of treatment (PEDFIC 1, all doses, placebo −0.25, scale 0-4): −1.13 | mean change in daytime tiredness score (0-4) (PEDFIC 1, odevixibat overall, baseline to weeks 21 to 24, placebo −0.49): −0.99 | mean change from baseline in percentage of days needing help falling asleep (PEDFIC 1, odevixibat overall, weeks 21 to 24, placebo −3%): −43% | mean change from baseline in percentage of days sleeping with the caregiver (PEDFIC 1, odevixibat overall, weeks 21 to 24, placebo −6%): −42% | mean change from baseline in percentage of days with soothing (PEDFIC 1, odevixibat overall, weeks 21 to 24, placebo −8%): −44% | mean (SE) change from baseline to week 24 in weight Z-score (PEDFIC 1, patients treated with odevixibat, placebo 0.1 (0.1)): 0.2 (0.1) | mean (SE) change from baseline to week 24 in height Z-score (PEDFIC 1, patients treated with odevixibat, placebo −0.2 (0.1)): 0.0 (0.1) | proportion of patients who met serum bile acid response criteria (PEDFIC 1, patients with PFIC1, week 24): 17% | proportion of patients who met serum bile acid response criteria (PEDFIC 1, patients with PFIC2, week 24): 40%
